Among the data in ChEMBL document CHEMBL4483862, “Open-source discovery of chemical leads for next-generation chemoprotective antimalarials” (2018) are IC50 and IC90 values, retold here.

In this test the test system is Plasmodium berghei. The test is described as follows: Luciferase/luciferin-expressing antifolate-resistant parasites were used to infect a culture of HepG2 cells that were pre-incubated with compounds. Infected hepatocytes emit light due to the luciferase reaction. Assay results are presented as the percent inhibition of light emission compared to control. […]. The conditions noted are these: sporozoite; for IC90: read-out: LUCIFERASE INFECTION ASSAY - IC90. It is filed as functional.

The mark [1] stands for this setting: read-out: LUCIFERASE INFECTION ASSAY - IC50.

Each structure is given as a SMILES string. Bounds are passed on as bounds.

A word on the IC50: it is the concentration that inhibits the measured activity by half. Broadly, the IC90 is the concentration needed for an effect of 90%. For `COc1ccc(Oc2ccc(/C=C/C(=O)c3ccc(N4CCN(C)CC4)cc3)cc2[N+](=O)[O-])cc1`, the IC90 is 4.34 µM. Moreover, the IC50 (HEPG2TOX_HILL_SLOPE 14.7, HEPG2TOX_R_SQUARED 0.729, PBLUC_HILL_SLOPE 20.7, PBLUC_R_SQUARED 0.331, read-out: LUCIFERASE INFECTION ASSAY - IC50) was determined as 3.9 µM.

`Cc1ccc(Nc2ccnc(Nc3ccc(C)cc3)n2)cc1`: the IC90 was above 10 µM. Also, the IC50 (PBLUC_HILL_SLOPE 2.32, 3.33, PBLUC_R_SQUARED 0.458, 0.517, read-out: LUCIFERASE INFECTION ASSAY - IC50) was determined as 4.86 µM. In the case of `Cc1cc(=O)nc(N/N=C/c2c(C)nn(-c3cccc(C(F)(F)F)c3)c2Cl)[nH]1`, the IC90 was found to be 8.03 µM. The IC50 (HEPG2TOX_HILL_SLOPE 9.49, HEPG2TOX_R_SQUARED 0.952, PBLUC_HILL_SLOPE 2.17, PBLUC_R_SQUARED 0.422, read-out: LUCIFERASE INFECTION ASSAY - IC50) is 2.91 µM. On to `CC(NC(=O)COC(=O)COc1ccc2c(c1)CCC(=O)N2)c1ccco1` (centres undefined), for which the IC90 is above 10 µM. The IC50 under setting [1] is above 10 µM. With `O=C1C=C/C(=N\Nc2ccc3c(c2)OCCO3)c2cccnc21`, the IC90 is 3.95 µM. For the same compound, for the setting “HEPG2TOX_HILL_SLOPE 2.89, HEPG2TOX_R_SQUARED 0.923, PBLUC_HILL_SLOPE 13, PBLUC_R_SQUARED 0.601, read-out: LUCIFERASE INFECTION ASSAY - IC50”, the IC50 was found to be 3.33 µM. For `Cc1ccc2nc(NC(=O)c3cccc(F)c3)c(C(=O)NCC(C)C)n2c1`, the IC90 came to 3.14 µM. The IC50 (FFLUC_HILL_SLOPE 3.07, FFLUC_R_SQUARED 0.833, HEPG2TOX_HILL_SLOPE 1.43, HEPG2TOX_R_SQUARED 0.94, PBLUC_HILL_SLOPE 3.56, PBLUC_R_SQUARED 0.485, read-out: LUCIFERASE INFECTION ASSAY - IC50) was determined as 1.69 µM. As for `Cc1cccc2nc(CSC(=S)NCc3cccnc3)cn12`, the IC90 was above 10 µM. Besides, the IC50 (HEPG2TOX_HILL_SLOPE 3.71, HEPG2TOX_R_SQUARED 0.958, PBLUC_HILL_SLOPE 13, PBLUC_R_SQUARED 0.345, read-out: LUCIFERASE INFECTION ASSAY - IC50) was determined as 9.61 µM. As for `COc1ccc(-c2cc(=O)n3nc(C)c(-c4ccc(F)cc4)c3[nH]2)cc1`, the IC90 worked out at 3.24 µM. Besides, for the setting “HEPG2TOX_HILL_SLOPE 2.56, HEPG2TOX_R_SQUARED 0.662, PBLUC_HILL_SLOPE 58.3, PBLUC_R_SQUARED 0.0989, read-out: LUCIFERASE INFECTION ASSAY - IC50”, the IC50 was 3.12 µM. For `Nc1cc(Cl)ccc1Oc1ccc2ccccc2c1`, the IC90 is above 10 µM. Moreover, the IC50 under setting [1] was above 10 µM. Take `N#CC1=C2SC=C(c3ccc(Br)cc3)N2CCCC1=O`: the IC90 was above 10 µM. The IC50 under setting [1] was above 10 µM. As for `CCC/C(=N\n1c(-c2ccc(-c3ccccc3)cc2)cs/c1=N/c1c(C)n(C)n(-c2ccccc2)c1=O)c1ccccc1`, the IC90 was above 10 µM. Further, under setting [1], the IC50 is above 10 µM. `Brc1cc2c(cc1CSc1ncnc3ccccc13)OCO2`: the IC90 came out at 1.53 µM. For the same compound, the 50% inhibitory concentration (IC50) (HEPG2TOX_HILL_SLOPE 1.93, HEPG2TOX_R_SQUARED 0.941, PBLUC_HILL_SLOPE 155, PBLUC_R_SQUARED 0.104, read-out: LUCIFERASE INFECTION ASSAY - IC50) was 1.51 µM. Take `CNc1nc(SCCS(=O)(=O)c2ccccc2)nc2ccccc12`: the IC90 worked out at 6.83 µM. Moreover, the IC50 (PBLUC_HILL_SLOPE 1.42, PBLUC_R_SQUARED 0.718, read-out: LUCIFERASE INFECTION ASSAY - IC50) was found to be 1.45 µM. For the compound `CCOC(=O)C1=C(N)n2c(s/c(=C\c3ccc(OC)cc3)c2=O)=CC1c1ccc(OC)cc1` (centres undefined), the IC90 was above 7.1 µM. The IC50 under setting [1] was above 7.1 µM.

Consider `COc1cccc(N/N=C2\C=CC(=O)c3ncccc32)c1`, for which the IC90 worked out at 3.47 µM. Further, the IC50 (HEPG2TOX_HILL_SLOPE 12.1, HEPG2TOX_R_SQUARED 0.589, PBLUC_HILL_SLOPE 8.94, PBLUC_R_SQUARED 0.612, read-out: LUCIFERASE INFECTION ASSAY - IC50) came out at 2.71 µM. As for `CCn1c2ccccc2c2cc(NC(=O)CN3C(=O)NC4(CCCc5ccccc54)C3=O)ccc21` (centres undefined), the 90% effect concentration (IC90) amounted to 9.72 µM. Besides, for the setting “FFLUC_HILL_SLOPE 13.4, FFLUC_R_SQUARED 0.411, HEPG2TOX_HILL_SLOPE 9.13, HEPG2TOX_R_SQUARED 0.498, PBLUC_HILL_SLOPE 3.53, PBLUC_R_SQUARED 0.448, read-out: LUCIFERASE INFECTION ASSAY - IC50”, the IC50 is 5.21 µM. In the case of `CSc1c(C#N)c(-c2cc(C(C)(C)C)oc2C)nn1-c1ccc(I)cc1`, the IC90 was above 6.91 µM. In addition, the IC50 (FFLUC_HILL_SLOPE 0.81, FFLUC_R_SQUARED 0.431, read-out: LUCIFERASE INFECTION ASSAY - IC50) is above 6.91 µM. For `O=C(/C=C/c1ccc(Cl)c(Cl)c1)NNC(=O)C1COc2ccccc2O1` (centres undefined), the IC90 was 9.08 µM. The IC50 (PBLUC_HILL_SLOPE 3.24, PBLUC_R_SQUARED 0.588, read-out: LUCIFERASE INFECTION ASSAY - IC50) is 4.61 µM. For the compound `COc1ccc(-c2ccc3nnc(-c4ccccc4)n3c2)cc1`, the IC90 stood at 5.12 µM. The IC50 (HEPG2TOX_HILL_SLOPE 1.32, HEPG2TOX_R_SQUARED 0.91, PBLUC_HILL_SLOPE 2.27, PBLUC_R_SQUARED 0.548, read-out: LUCIFERASE INFECTION ASSAY - IC50) was 1.94 µM. Regarding `Cc1ccccc1C(=O)OCC(=O)c1cc(C)n(Cc2ccco2)c1C`, the IC90 is 3.07 µM. The IC50 (PBLUC_HILL_SLOPE 1.7, PBLUC_R_SQUARED 0.868, read-out: LUCIFERASE INFECTION ASSAY - IC50) is 0.843 µM. For the compound `O=C(NC1CCCc2ccccc21)c1cc(Cl)nc(Cl)c1` (centres undefined), the IC90 is above 10 µM. The IC50 under setting [1] is above 10 µM. For the compound `Cn1nc(C(F)(F)F)cc1-c1ccc(/C=C(\C#N)S(=O)(=O)c2ccc(Cl)cc2)s1`, the IC90 is above 7.21 µM. The IC50 (FFLUC_HILL_SLOPE 11.9, FFLUC_R_SQUARED 0.391, read-out: LUCIFERASE INFECTION ASSAY - IC50) is above 7.21 µM. With `Cc1cc2n(n1)c(C)cc(C)[n+]2-c1ccccc1`, the IC90 was determined as 4.57 µM. Moreover, where the note is “FFLUC_HILL_SLOPE 7.82, FFLUC_R_SQUARED 0.313, HEPG2TOX_HILL_SLOPE 3.53, HEPG2TOX_R_SQUARED 0.979, PBLUC_HILL_SLOPE 9.65, PBLUC_R_SQUARED 0.44, read-out: LUCIFERASE INFECTION ASSAY - IC50”, the IC50 was determined as 3.64 µM. Take `COc1ccc(N2CCN(c3nc(Nc4cc(C)nn4-c4ccccc4)c(Cl)cc3Cl)CC2)cc1`: the IC90 was above 10 µM. Besides, the IC50 (HEPG2TOX_HILL_SLOPE 10.1, 8.63, HEPG2TOX_R_SQUARED 0.279, 0.753, PBLUC_HILL_SLOPE 15.1, PBLUC_R_SQUARED 0.229, read-out: LUCIFERASE INFECTION ASSAY - IC50) was found to be 9.89 µM. For `Cc1occc1C(=O)NN=CC1C(=O)N(Cc2ccccc2)C(=O)c2ccccc21` (centres undefined), the IC90 is 7.7 µM. In addition, the IC50 (FFLUC_HILL_SLOPE 77.8, FFLUC_R_SQUARED 0.432, HEPG2TOX_HILL_SLOPE 1.95, HEPG2TOX_R_SQUARED 0.861, PBLUC_HILL_SLOPE 6.12, PBLUC_R_SQUARED 0.278, read-out: LUCIFERASE INFECTION ASSAY - IC50) was 5.38 µM. As for `CC(C)c1ccc(-c2csc(NC(=O)CCn3cnc([N+](=O)[O-])c3)n2)c(C(C)C)c1`, the IC90 turned out to be 8.21 µM. The IC50 (FFLUC_HILL_SLOPE 11.6, FFLUC_R_SQUARED 0.59, HEPG2TOX_HILL_SLOPE 11.1, HEPG2TOX_R_SQUARED 0.951, PBLUC_HILL_SLOPE 3.89, PBLUC_R_SQUARED 0.436, read-out: LUCIFERASE INFECTION ASSAY - IC50) worked out at 4.67 µM. Turning to `Cc1ccc(-n2c(C)cc(C3=NN=C(NC4CC4)SC3)c2C)cc1C`, the IC90 was determined as 3.59 µM.

As to `CC(NCC(O)COC1CCC(C(C)(C)C)CC1)c1ccccc1` (centres undefined), the IC90 was above 8.92 µM. In addition, for the setting “PBLUC_HILL_SLOPE 10.1, PBLUC_R_SQUARED 0.42, read-out: LUCIFERASE INFECTION ASSAY - IC50”, the IC50 turned out to be 7.39 µM. With `O=C(O)Cc1c(-c2ccc3c(c2)OCCO3)nc2ccc([N+](=O)[O-])cc2c1-c1ccccc1`, the IC90 stood at 8.54 µM. The IC50 (HEPG2TOX_HILL_SLOPE 0.567, HEPG2TOX_R_SQUARED 0.724, PBLUC_HILL_SLOPE 1.12, 2.95, PBLUC_R_SQUARED 0.872, 0.627, read-out: LUCIFERASE INFECTION ASSAY - IC50) worked out at 3.34 µM. Regarding `c1ccc(OCCCN2CCC(c3nc4ccccc4s3)CC2)cc1`, the IC90 is above 9.36 µM. Moreover, the 50% inhibitory concentration (IC50) (PBLUC_HILL_SLOPE 3.81, PBLUC_R_SQUARED 0.48, read-out: LUCIFERASE INFECTION ASSAY - IC50) is 7.8 µM. For `CCOC(=O)c1c[nH]c2c(F)cc(F)cc2c1=O`, the IC90 was above 13 µM. The IC50 under setting [1] is above 13 µM.

On to `CN(C)CCCOc1ccc(-c2ccc(C(C)(C)C)cc2)cn1`, for which the IC90 was above 10.6 µM. Further, where the note is “PBLUC_HILL_SLOPE 0.428, PBLUC_R_SQUARED 0.727, read-out: LUCIFERASE INFECTION ASSAY - IC50”, the IC50 amounted to 0.0859 µM. In the case of `COc1cc(C2NCC(c3ccc(Cl)cc3Cl)c3c2[nH]c2ccccc32)ccc1OCC(C)C` (centres undefined), the IC90 was determined as 3.76 µM. Moreover, the IC50 (PBLUC_HILL_SLOPE 12.5, PBLUC_R_SQUARED 0.54, read-out: LUCIFERASE INFECTION ASSAY - IC50) was 3.15 µM. In the case of `Cc1ccc(N2C(=O)C=CC2=O)c(C)c1`, the IC90 turned out to be 6.84 µM. Under “HEPG2TOX_HILL_SLOPE 8.83, HEPG2TOX_R_SQUARED 0.656, PBLUC_HILL_SLOPE 7.12, PBLUC_R_SQUARED 0.655, read-out: LUCIFERASE INFECTION ASSAY - IC50”, the IC50 was 5.02 µM. As for `CCn1c(=O)n(Cc2cc(Cl)c3c(c2)OCO3)c2ccccc21`, the IC90 is above 10 µM. Moreover, the IC50 under setting [1] was above 10 µM.
